{"source": "patent US20080009546A1", "about": "(Chevron U.S.A. Inc., priority 2005, published 2008)", "key": {"[1]": {"system": "primary neurons from rat cerebral cortex", "assay": "NMDA-induced LDH release assay in primary cortical neurons (neuroprotection)", "format": "cell-based", "set-up": "Total LDH (Avg): unit not given here", "how_it_was_run": "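Fetal rat (E16–E18) cortical neurons on mouse astroglial feeder layers, fed growth medium/neurobasal+B27 (1:1), used after 11–14 days. Treatments given in Locke's buffer pH 7.4 for 15 min, then cells washed; 24 h later percent LDH released = 100×secreted/(total+secreted), tetrazolium readout.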"}, "[2]": {"system": "C57/BL6 male mice", "assay": "Rotarod test (balance and coordination, side effects)", "conditions": "mouse, in vivo", "protocol": "The side effects of the compounds was primarily evaluated using the rotarod test, which mainly assesses the balancing and coordination of mice. The comparisons were made on fall time of the mice between the first measure (pre-treatment) and second measure taken 20 min after the drug/vehicle injection in the same group (paired t-test). […] Comparisons of the rotatod fall times after drug/vehicle dosing were made between drug treatment and control groups (unpaired t-test)."}, "[3]": {"system": "NMDA receptor", "assay": "Whole-cell voltage-clamp recordings of NMDA evoked currents in hypocretin neurons (hypothalamic slices)", "format": "cell-based, mouse"}, "[4]": {"system": "C57/BL6 male mice", "assay": "Pentylenetetrazol (PTZ)-induced seizure/death model", "format": "in vivo, mouse", "conditions": "for # of deaths within 30 min: 6 mice; for # of deaths within 30 min / PTZ-induced death: PTZ 100 mg/kg; for PTZ-induced death: 30 min observation", "protocol": "Although the protection against death is the key endpoint, other effects of the compounds on PTZ-induced seizures were also assessed using multiple parameters. For the mice that did die within the 30 minute observation window, the time of death was also compared. […] The seizure occurrence rate, onset time and number of level 3 (L3) seizure (repetitive seizures but the animal can still stand) and level 4 (L4) seizure (repetitive seizures and the animal loses righting) are also analyzed. The MDT compound (30 mg/kg) treated groups show a certain degree of improvement compared to control. No data from MK801 or memantine were included because the seizures occurring under these treatments are totally different from the control or MDT injected groups due to side effects (“high jumping”)."}, "[5]": {"system": "C57/BL6 male mice"}, "[6]": {"conditions": "NMDA 300 uM + Memantine 50 uM, Plate #4, poly-lysine-coated rat neurons, GM/NB + B-27 fed, 24 hour incubation"}, "[7]": {"conditions": "NMDA 300 uM + Memantine 50 uM, Plate #5, astrocyte-coated rat neurons, GM fed, 24 hour incubation"}, "[8]": {"conditions": "NMDA 300 uM + Memantine 50 uM, astrocyte-coated rat neurons, GM/NB + B-27 fed, 24 hour incubation"}, "[9]": {"conditions": "NMDA 500 μM + Memantine 10 μM, astrocyte-coated rat neurons, GM/NB + B-27 fed, 21 hour incubation"}, "[10]": {"conditions": "NMDA 500 uM + Memantine 10 uM, poly-lysine-coated rat neurons, GM/NB + B-27 fed, 40 hour incubation"}, "[11]": {"conditions": "NMDA 500 μM + Memantine 100 μM, astrocyte-coated rat neurons, GM/NB + B-27 fed, 21 hour incubation"}, "[12]": {"conditions": "NMDA 500 uM + Memantine 100 uM, poly-lysine-coated rat neurons, GM/NB + B-27 fed, 40 hour incubation"}}, "note": "Where two headings read alike, the source gives them in different places."}
{"smiles": "CC12CC3CC(C)(C1)CC(N)(C3)C2", "note": "[memantine, 1-amino-3,5-dimethyladamantane, reference compound]", "values": [{"measurement": "% (Control Wash = 100)", "setting": "[1]; [6]", "value": 166, "unit": "%"}, {"measurement": "Secreted LDH (Avg)", "setting": "[1]; [6]", "value": 0.75}, {"measurement": "Secreted/(total + secreted) (Avg)", "setting": "[1]; [6]", "value": 18.20}, {"measurement": "Total LDH (Avg)", "setting": "[1]; [6]", "value": 3.36}, {"measurement": "% (Control Wash = 100)", "setting": "[1]; [7]", "value": 106, "unit": "%"}, {"measurement": "Secreted LDH (Avg)", "setting": "[1]; [7]", "value": 0.20}, {"measurement": "Secreted/(total + secreted) (Avg)", "setting": "[1]; [7]", "value": 6.20}, {"measurement": "Total LDH (Avg)", "setting": "[1]; [7]", "value": 3.06}, {"measurement": "% (Control Wash = 100)", "setting": "[1]; [8]", "value": 272, "unit": "%"}, {"measurement": "Secreted LDH (Avg)", "setting": "[1]; [8]", "value": 0.83}, {"measurement": "Secreted/(total + secreted) (Avg)", "setting": "[1]; [8]", "value": 19.63}, {"measurement": "Total LDH (Avg)", "setting": "[1]; [8]", "value": 3.41}, {"measurement": "% (Control Wash = 100)", "setting": "[1]; [9]", "value": 129, "unit": "%"}, {"measurement": "Secreted LDH (Avg)", "setting": "[1]; [9]", "value": 0.47}, {"measurement": "Secreted/(total + secreted) (Avg)", "setting": "[1]; [9]", "value": 10.73}, {"measurement": "Total LDH (Avg)", "setting": "[1]; [9]", "value": 3.89}, {"measurement": "% (Control Wash = 100)", "setting": "[1]; [10]", "value": 111, "unit": "%"}, {"measurement": "Secreted LDH (Avg)", "setting": "[1]; [10]", "value": 0.41}, {"measurement": "Secreted/(total + secreted) (Avg)", "setting": "[1]; [10]", "value": 12.77}, {"measurement": "Total LDH (Avg)", "setting": "[1]; [10]", "value": 2.80}, {"measurement": "% (Control Wash = 100)", "setting": "[1]; [11]", "value": 114, "unit": "%"}, {"measurement": "Secreted LDH (Avg)", "setting": "[1]; [11]", "value": 0.42}, {"measurement": "Secreted/(total + secreted) (Avg)", "setting": "[1]; [11]", "value": 9.47}, {"measurement": "Total LDH (Avg)", "setting": "[1]; [11]", "value": 4.02}, {"measurement": "% (Control Wash = 100)", "setting": "[1]; [12]", "value": 156, "unit": "%"}, {"measurement": "Secreted LDH (Avg)", "setting": "[1]; [12]", "value": 0.52}, {"measurement": "Secreted/(total + secreted) (Avg)", "setting": "[1]; [12]", "value": 17.86}, {"measurement": "Total LDH (Avg)", "setting": "[1]; [12]", "value": 2.39}, {"measurement": "rotarod fall time, pre-treatment vs 20 min after injection", "setting": "[2]", "value": "loss of performance"}, {"measurement": "hyperactivity (side effect)", "setting": "[2]; ip, 30 mg/kg", "value": "observed"}, {"measurement": "rotarod performance after dosing vs. control", "setting": "[2]; ip, 30 mg/kg", "value": "statistically significant decreases in rotarod performance"}, {"measurement": "reversibility of inhibition of NMDA evoked currents upon washout", "setting": "[3]", "value": "reversible"}, {"measurement": "inhibition of the peak amplitude of NMDA evoked currents", "setting": "[3]; 10 µM", "value": "41.3±10", "unit": "%"}, {"measurement": "inhibition of the peak amplitude of NMDA evoked currents", "setting": "[3]; 30 µM", "value": "52.7±7.4", "unit": "%"}, {"measurement": "Mortality rate", "setting": "[4]; 10 mg/kg i.p.", "value": 0.17}, {"measurement": "# of deaths within 30 min", "setting": "[4]; 10 mg/kg i.p.", "value": 1}, {"measurement": "Mortality rate", "setting": "[4]; 30 mg/kg i.p.", "value": 0}, {"measurement": "# of deaths within 30 min", "setting": "[4]; 30 mg/kg i.p.", "value": 0}, {"measurement": "PTZ-induced death", "setting": "[4]; 10 and 30 mg/kg i.p.", "value": "dose-dependent reduction in death"}, {"measurement": "PTZ-induced death", "setting": "[4]; high dose 30 mg/kg i.p.", "value": "full protection"}, {"measurement": "Extension rate", "setting": "[5]; 10 mg/kg i.p.", "value": 0.67}, {"measurement": "Mortality rate", "setting": "[5]; 10 mg/kg i.p.", "value": 0}, {"measurement": "# of deaths", "setting": "[5]; 10 mg/kg i.p., 6 mice", "value": 0}, {"measurement": "# of extensions", "setting": "[5]; 10 mg/kg i.p., 6 mice", "value": 4}, {"measurement": "MES-induced death", "setting": "[5]; low dose 10 mg/kg i.p., mice", "value": "protected all mice from death"}]}
